6 compounds from PMC6368403, “Identification of a bilirubin receptor that may mediate a component of cholestatic itch” (eLife, 2019) can be followed below.

Where “and” joins values, the source holds several entries; their conditions need not be identical. Equal values may be shown once. Numbered stars: 1 amine (or outer) side, 2 acyl side, 3 side chain; on linkers, the order of the positions; unused ones are H or OH. Bridge positions count the residues as written; N and C are the ends. Square brackets hold non-standard residues; d marks the D form. Peptide text beside a SMILES is read from it. X1 = CC(=O)NC(C(=O)OC(C(C)C)C(N[*:1])C(=O)[*:2])C(O)C(C)C; PhLac = O=C(O)[CH](O)Cc1ccccc1; NMeT = CN[CH](C(=O)O)[CH](C)O; NMeA = CN[CH](C)C(=O)O; NMeDha = C=C(NC)C(=O)O

One test has as its system mice. Nature of the test: Scratching bouts after subcutaneous injection into the nape of the neck / back. Type of test: in vivo, mouse. To be noted: for Scratching bouts binned according to 5 min intervals (time course of itch behavior): one column per mouse, values of a mouse sum to 1 (Fig 1B). The procedure: All applicable behavioral tests were performed and analysed with the experimenter blind to genotype. […] On the day before the experiment, animals were placed in the test chamber for 30 min before being subjected to a series of three mock injections with 5 min break periods in between. On the day of the experiment, animals were first allowed to acclimatize to the test chamber for 10 min before injection. […] A bout of scratching was defined as a continuous scratching movement with either hindpaw directed at the area of the injection site. In the cheek injection model, a wipe was defined as a single forepaw stroking the site of the injection. Use of both forepaws on the face or cheek was considered as grooming behavior. […] For H1R block, 30 mg/kg of cetirizine HCl (pH 7.4) was given intraperitoneally thirty minutes prior to injection of bilirubin. Licking behavior was quantified in seconds and identified as the licking of the toes or footpad of the hind paw site of injection that was neither preceded nor followed by licking of any other portion of the body.

In a further test the target is T1, MRGPRX4 (Homo sapiens, UniProt Q96LA9).
T1 construct: expressed in transfected cells
Nature of the test: Ca2+ imaging and concentration-Ca2+ response (EC50) in HEK293 cells expressing MRGPRX4. It is filed as cell-based. To be noted: for Effect on bilirubin-induced calcium responses: MRGPRX4 cells pre-incubated with 10 µM inhibitor for 30 min, 50 µM bilirubin; for Ca2+ response (concentration-response curve): MRGPRX4, triplicate wells (Fig 2I). On the procedure:
(§1) All cultured cells were maintained in DMEM supplemented with 10% FBS and 1% Penicillin/Streptomycin at 37°C, 5% CO2. All data included were generated from cells tested for mycoplasma and found to be negative. Cells were imaged in calcium imaging buffer (CIB; 10 mM HEPES, 1.2 mM NaHCO3, 130 mM NaCl, 3 mM KCl, 2.5 mM CaCl2, 0.6 mM MgCl2, 20 mM glucose, and 20 mM sucrose at pH 7.4 and 290–300 mOsm). To monitor changes in intracellular [Ca^2+] ([Ca^2+]i), cells were loaded with either Fura 2-AM (HEK293 cells) or Fluo 4-AM (DRG neurons and mast cells) for 30 min in the dark at 37°C in CIB just prior to imaging. With Fura 2-AM, emission at 510 nm was monitored from excitation at both 340 nm and 380 nm. With Fluo 4-AM, emission at 520 nm was monitored from excitation at 488 nm. Cells were identified as responding if the intracellular [Ca^2+] rose by either 50% compared to baseline or 50% compared to the [Ca^2+]i change assayed during addition of 50 mM KCl (neurons only). Damaged, detached, high-baseline, and motion-activated cells were excluded from analysis.
(§2) In initial screens, HEK293 cells stably expressing the murine G-protein alpha-subunit Gα15, a unique Gα protein that non-selectively couples a large variety of GPCRs to phospholipase C ^30, were plated on poly-D-lysine-coated coverslips and transiently transfected with constructs encoding the MRGRPR of interest. 12–24 hr later, cells were loaded with the Fura 2-AM. Unless otherwise specified, compounds were perfused into the imaging chamber for approximately thirty seconds after a baseline period was established. Response was then monitored at 5 s intervals for an additional 60 s.
(§3) HEK293 cells stably expressing either MRGPRA1, MRGPRX4, and MRGRPC11 were seeded in poly-D-lysine-coated 96-well plates at 10,000 cells/well. Cells were loaded with Fura 2–AM, washed twice, and maintained in CIB. Haem metabolites were freshly dissolved in DMSO in dim light and then diluted into a buffer comprised of 20 mM Tris and 150 mM NaCl at pH 8.8. Potential changes in pH were evaluated prior to each experiment. EC50 values were determined from dose-responses performed in triplicate, repeated 2–4 times. To determine potential antagonism by QWF against bilirubin, cells were treated with varying doses of QWF for 1 min in CIB prior to application of agonist.
(§4) HEK293 stable cell lines expressing GFP-tagged MRGPRA3, MRGPRC11, MRGPRD, MRGPRX1, and MRGPRX2 were generated in previously described reports ([Liu et al., 2009]; [Liu et al., 2012]; [McNeil et al., 2015]). Briefly, plasmids containing the receptor of interest were transfected into HEK cells using Lipofectamine 3000. After 3 days, cells were then selected using 0.5 mg/mL G418. After 3 weeks, monoclonal colonies were established and each the highest expressing clones were identified. For this study, Mrgpra1 and MRGPRX4 were inserted into pEGFP-N1 and transfected into HEK293 cells. MRGPR-positive cells were selected using 0.5 mg/mL G418 for three weeks, after which GFP-positive cells were sorted by FACS and monoclonally expanded. Two lines expressing similar levels of MRGPRA1 and MRGPRX4, as measured by GFP fluorescence, were selected for study.

A further test concerns the target T2, MRGPRA1 (Mus musculus, UniProt Q91WW5).
T2 construct: expressed in transfected cells
T2 sequence (Q91WW5 1-304): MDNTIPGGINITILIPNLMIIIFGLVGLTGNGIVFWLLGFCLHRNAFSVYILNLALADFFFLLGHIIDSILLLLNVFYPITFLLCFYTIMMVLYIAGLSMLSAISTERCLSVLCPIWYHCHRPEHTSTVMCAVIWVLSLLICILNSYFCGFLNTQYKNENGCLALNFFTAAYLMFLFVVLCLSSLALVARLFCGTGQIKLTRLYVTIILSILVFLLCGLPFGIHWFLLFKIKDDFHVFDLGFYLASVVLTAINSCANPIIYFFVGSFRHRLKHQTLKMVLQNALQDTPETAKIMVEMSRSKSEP
As to the kind of experiment: Ca2+ imaging and concentration-Ca2+ response (EC50) in HEK293 cells expressing MRGPRA1. It is filed as cell-based. To be noted: for Effect on bilirubin-induced calcium responses: MRGPRA1 cells pre-incubated with 10 µM inhibitor for 30 min, 50 µM bilirubin; for Ca2+ response (concentration-response curve): MRGPRA1, triplicate wells (Fig 2D). On the procedure: as §1, §2, §3, §4

T1 sequence (Q96LA9 whole entry): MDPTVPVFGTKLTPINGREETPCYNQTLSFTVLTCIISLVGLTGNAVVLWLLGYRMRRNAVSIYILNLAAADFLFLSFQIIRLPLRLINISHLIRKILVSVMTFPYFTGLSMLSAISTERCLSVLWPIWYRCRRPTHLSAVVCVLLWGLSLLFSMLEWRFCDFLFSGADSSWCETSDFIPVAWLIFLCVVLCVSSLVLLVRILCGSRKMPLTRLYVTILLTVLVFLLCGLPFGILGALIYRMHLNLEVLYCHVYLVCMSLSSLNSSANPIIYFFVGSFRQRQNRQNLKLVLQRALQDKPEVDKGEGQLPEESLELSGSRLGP

As for `O=C(O)COCCN1CCN(C(c2ccccc2)c2ccc(Cl)cc2)CC1` (stereo not shown) [cetirizine], in the test on mice (30 mg/kg i.p. 30 min prior to bilirubin at the nape), the “Effect on scratching of mice injected with bilirubin” value is “failed to alleviate scratching behavior”.

Consider `COc1ccc2c(c1)CC[C@@H]1[C@@H]2CC[C@]2(C)[C@@H](NCCCCCCN3C(=O)C=CC3=O)CC[C@@H]12` [U73122, reference compound], for which the “Effect on bilirubin-induced calcium responses” value is “inhibited bilirubin-induced calcium responses” at MRGPRX4 and “abolished bilirubin-induced calcium responses” on MRGPRA1.

Take `C=CC1=C(C)/C(=C/C2=NC(=C\c3[nH]c(/C=C4\NC(=O)C(C)=C4C=C)c(C)c3CCC(=O)O)/C(CCC(=O)O)=C2C)NC1=O` [biliverdin]: the “Ca2+ response (concentration-response curve)” value (shortened to “Ca2+ response”) at MRGPRX4 ([Ligand] 7.8125e-6 M), on MRGPRX4 ([Ligand] 1.5625e-5 M), on MRGPRX4 ([Ligand] 3.125e-5 M), on MRGPRX4 ([Ligand] 6.25e-5 M), on MRGPRX4 ([Ligand] 0.000125 M) and at MRGPRX4 ([Ligand] 0.00025 M) was 0 in each case. Further, the “Ca2+ response” value at MRGPRX4 ([Ligand] 0.0005 M), on MRGPRX4 ([Ligand] 0.001 M), at MRGPRA1 ([Ligand] 7.8125e-6 M), on MRGPRA1 ([Ligand] 1.5625e-5 M), on MRGPRA1 ([Ligand] 3.125e-5 M) and at MRGPRA1 ([Ligand] 6.25e-5 M) was 0 throughout. Moreover, the “Ca2+ response” value on MRGPRA1 ([Ligand] 0.000125 M), on MRGPRA1 ([Ligand] 0.00025 M), on MRGPRA1 ([Ligand] 0.0005 M) and on MRGPRA1 ([Ligand] 0.001 M) was 0 in each case. In addition, in the test with mice (metabolite injected into mice (Fig 1D)), the “Scratching behavior” value is “did not induce scratching”.

For `C=C1C(=O)NC(C)C(=O)N(C)C(C)C(=O)NC(C(OC(=O)C(NC(C)=O)C(O)C(C)C)C(C)C)C(=O)N(C)C(C(C)OC)C(=O)OC(C)C(NC(C)=O)C(=O)OC(Cc2ccccc2)C(=O)N1C` (stereo not shown) [YM-254890, reference compound] (Ac-T[PhLac][NMeDha]A[NMeA][X1][NMeT](Me); ester 1-C; configuration not given here), the entries for the “Effect on bilirubin-induced calcium responses” value on MRGPRX4 and at MRGPRA1 were “inhibited bilirubin-induced calcium responses” and “abolished bilirubin-induced calcium responses”, respectively.

In the case of `CCN(CC)CCCC(C)Nc1ccnc2cc(Cl)ccc12` (stereo not shown) [Chloroquine, chloroquine], the “Scratching bouts binned according to 5 min intervals (time course of itch behavior)” value with mice (time 5 min) is 0.201 and 0.03846 and 0.1149 and 0.1078 and 0.05405 and 0 (2×) and 0.1374 and 0.04255 and 0.2424 and 0.1529; with mice (time 10 min), 0.2353 and 0.1065 and 0.2213 and 0.1121 and 0.1459 and 0.2993 and 0.3626 and 0.4113 and 0.6263 and 0.2639 and 0.4204; in the test with mice (time 15 min), 0.348 and 0.3787 and 0.1447 and 0.2155 and 0.3676 and 0.3673 and 0.4011 and 0.3191 and 0 and 0.5 and 0.2548; in the test with mice (time 20 min) it was 0.1618 and 0.2426 and 0.2681 and 0.2284 and 0.1838 and 0.1837 and 0.0989 and 0.09929 and 0.1212 and 0 (2×); in the test on mice (time 25 min), 0.05392 and 0.142 and 0.1447 and 0.1336 and 0.09189 and 0.1361 and 0 (3×) and 0.2361 and 0.172; with mice (time 30 min), 0 (4×) and 0.09172 and 0.1064 and 0.2026 and 0.1568 and 0.01361 and 0.1277 and 0.0101.

For `NCCc1c[nH]cn1` [Histamine, histamine], the “Scratching bouts binned according to 5 min intervals (time course of itch behavior)” value with mice (time 5 min) was 0.02985 and 0.0102 and 0 (10×) and 0.134; in the test with mice (time 10 min), 0.3881 and 0.5714 and 0.08333 and 0.1818 and 0.3333 and 0.527 and 0.02857 and 0.1765 and 0.2143 and 0.1923 and 0.3918 and 0.5938 and 0.4348; in the test on mice (time 15 min), 0.2985 and 0.07143 and 0.8333 and 0.6545 and 0.625 and 0.3919 and 0.4286 and 0.2353 and 0.3367 and 0.3846 and 0.1031 and 0 and 0.5435; in the test with mice (time 20 min) it was 0.2687 and 0.1633 and 0 (2×) and 0.1636 and 0.04167 and 0.08108 and 0.2286 and 0.4118 and 0.08163 and 0.1154 and 0.2344 and 0.02174; with mice (time 25 min), 0.01493 and 0.1837 and 0.08333 and 0 (4×) and 0.3143 and 0.1765 and 0.1939 and 0.3077 and 0.2474 and 0.1719; in the test with mice (time 30 min), 0 (11×) and 0.1735 and 0.1237.
